Results published in US20090227489A1, “STAT3 Agonists and Antagonists and Therapeutic Uses Thereof” (Johns Hopkins University, priority 2000, published 2009).

Test system: B16 cells
Experiment: Macrophage-mediated antitumor cytotoxicity (3H-TdR incorporation)
Format: cell-based, murine
Conditions: added to macrophages before supernatant; NMA 0.5 mM, catalase 500 U/ml
Experimental: Macrophages (˜1×10^5) were incubated in 50% supernatants from Stat3β-transfected (S-Stat3β) or GFP-vector transfected (S-GFP) B16 cells for 6 h. The supernatants were replaced by normal complete medium and wild-type B16 cells (1×10^4) were added.
Macrophage-mediated antitumor cytotoxicity. Antitumor cytotoxic activity of macrophages against B16 cells was determined by inhibition of DNA synthesis. Briefly, peritoneal macrophages (1×10^5) were incubated in 50% supernatants derived from either wild type, pIRES-Stat3β or pIRES-GFP transfected, or UV-irradiated B16 cells for 6 h. After replacing the supernatants with normal complete medium, B16 cells (1.0×10^4/well) were added and co-cultured for 48 h with and without peritoneal macrophages. For some experiments, NOS inhibitor, N-monomethyl-L-arginine (NMA) (0.5 mM, Sigma) or H202 quencher, catalase (500 U/ml, Boehringer Mannheim, Indianapolis, Ind.) were added to macrophages before adding supernatant from Stat3β-transfected B16 cells. The co-cultured cells were pulsed with 3H-thymidine (3H-TdR) (0.25 μCi/well) during the last 6 h of incubation to estimate DNA synthesis. 3H-TdR incorporation was determined using a liquid scintillation β-counter (Pharmacia Wallac, Finland).
3H-thymidine incorporation to estimate DNA synthesis and cell proliferation was performed.

Substance: catalase
- effect on macrophage-mediated cytostasis induced by Stat3β supernatant: does not influence macrophage cytotoxic effects against B16 cells
